Assay results taken from patent publication US12629352B2, “Methods and uses for apelin receptor agonists” (RESEARCH TRIANGLE INSTITUTE, priority 2019, dated 2026).

System: bleomycin-induced pulmonary fibrosis in male C57BL/6 mice
Test: 21-day bleomycin-induced lung fibrosis model, prophylactic BID oral treatment
Type: in vivo
Conditions: for Ashcroft score index: FIG. 15A, BID treatment; for absolute lung weights vs vehicle / absolute lung weights: day 21 post-bleomycin; for absolute lung weights: ±SEM, significantly lower than vehicle (p<0.05)
Procedure: Bleomycin is widely used to induce pulmonary fibrosis in rodents in order to study potential novel therapies for fibrosis. This study was designed to evaluate the prophylactic efficacy of test compound, Compound 1, also referred to as SRRM-423, in a 21-day model of bleomycin-induced pulmonary fibrosis in male C57BL/6 mice.
Prophylactic treatment of three different doses of 30 mg/kg, 15 mg/kg, and 7.5 mg/kg of Compound 1 was commenced a day before induction of disease and continued until the end of the study, namely 21 days after bleomycin administration. Treatment was administered twice daily via oral gavage.
Mice were administered bleomycin (Catalog number C-61703-323-22, lot number D011495AA, Hospira) via oropharyngeal route to induce lung fibrosis.
Bleomycin-induced animals were treated twice daily with either of the three different doses of test compound Compound 1 or pirfenidone starting from a day prior to disease induction and continued till study termination. Study animals were harvested on day 21 post-bleomycin administration. As an end point analysis, fibrosis symptoms such as body weight, absolute lung weight, lung weight normalized to body weight, and total leukocytes in BAL fluid were evaluated and compared with vehicle-treated mice.
On day 0, all mice in groups 2-6 received a 1.5 U/kg oropharyngeal administration of bleomycin to induce pulmonary fibrosis. Animals in group 1 were not administered bleomycin, but instead received a single dose of normal saline via the oropharyngeal route, and were considered sham control mice.
Dosing was initiated one day prior to induction of disease. Animals were dosed twice daily orally with Compound 1 and Pirfenidone and treatment was continued until 21 days after bleomycin administration. Animals from group 2 were treated with vehicle (0.5% methylcellulose). Animals in groups 3, 4 and 5 received Compound 1 at 30, 15, and 7.5 mg/kg respectively, and animals in group 6 received Pirfenidone 100 mg/kg.
Surviving animals were euthanized 21 days post bleomycin administration. Animals were weighed, then blood and lungs were collected. Blood was processed for plasma. Lungs, were weighed, flushed with HBSS for BAL collection, and fixed in 10% NBF. Supernatant from BAL fluid was frozen while the pellet was used for total leukocyte cell count.
In order to induce pulmonary fibrosis, mice in groups 2-6 were administered 1.5 U/kg bleomycin (Catalog number C-61703-323-22, lot number D011495AA, Hospira) in 70 μl via oropharyngeal administration. Animals from group 1 were administered 70 μl of saline by the oropharyngeal route, instead of bleomycin, and served as sham controls.
Compound 1 was provided as a trifluoroacetic acid (TFA) salt and requires a salt correction of 1.0654. All dose amounts were calculated as the free base content of the test article using the correction factor. Vehicle used for formulation of test compound, Compound 1, was 0.3% Tween 80 and 1% N-methylpyrollidinone in 0.5% aqueous methylcellulose. Vehicle and dosing formulation of Compound 1 was prepared fresh weekly. Dosing formulations and vehicles were stored at 4±2° C. protected from heat and light. The expiration date for the test article dosing solutions were set at 7 days after preparation. Pirfenidone was sourced from a vendor and formulated in the same vehicle as Compound 1, i.e., 0.3% Tween 80 and 1% N-methylpyrollidinone in 0.5% aqueous methylcellulose.
Animals were dosed twice daily with volume of 100 μl/dose by oral gavage from a day prior to disease induction and same treatment was continued till study termination, i.e., day 21 post bleomycin administration. Surviving animals were harvested within 2 to 4 hours post final dosing on day 21.
The lungs from each animal were harvested following Aragen's Standard Operating Procedure (WA-004-01). Each lung was dissected from the animal and weighed. The BAL fluid was collected by lavaging the lung twice with 0.5 ml Hanks Balanced Salt Solution (HBSS, VWR Radnor, PA). […]

[1] = lung histopathology, dose not specified

Row | SMILES | Ashcroft score index [1] | absolute lung weights vs vehicle (group 6, 100 mg/kg BID oral gavage) | fibrosis according to Ashcroft scores (30 mg/kg BID, compared to induced controls and to 100 mg/kg Pirfenidone) | fibrosis according to Ashcroft scores (15 or 7.5 mg/kg BID, compared to induced controls, similar to 100 mg/kg Pirfenidone BID) | average total leukocyte count in BAL fluid (30, 15 and 7.5 mg/kg BID, day 21, vs vehicle group 2, statistical significance not reached) | α-SMA positive lung tissue as a percent of the total lung parenchyma (>7.5 mg/kg, FIG. 15B, compared to induced controls, no clear relationship to the dose) | Ashcroft score of lung section (Masson's trichome staining) (FIG. 16, 30 mg mpk + bleomycin, bleomycin/no treatment similar to score 5) | α-SMA positive staining of lung section (FIG. 17, 30 mpk + bleomycin, compared to induced controls) | absolute lung weights (group 3, 30 mg/kg BID oral gavage) [mg] | absolute lung weights vs vehicle (group 4, 15 mg/kg BID oral gavage) | body weight (group 4, 15 mg/kg BID, recorded three times a week to day 21) | absolute lung weights (group 5, 7.5 mg/kg BID oral gavage) [mg] | fibrosis symptoms (body weight, lung weight, lung weight index, total leukocyte counts, myofibroblast proliferation) (highest dose of 30 mg/kg BID) | proliferation of activated myofibroblasts (antibody to α-SMA) [1] | absolute and normalized lung weights (prophylactic BID treatment, doses not distinguished)
1 | Cc1ccc(=O)n(-c2ccccc2)c1 [Pirfenidone, reference compound] | reduced Ashcroft score index | Statistical significance was not reached | – | – | – | – | – | – | – | – | – | – | – | – | –
2 | O=C(O)C[C@H](CCN1CCCC(F)(F)C1)NC(=O)c1cc(-c2ccccc2C(F)(F)F)n(C2CCCC2)n1 [Compound 1, (3S)-3-({1-cyclopentyl-5-[2-(trifluoromethyl)phenyl]-1H-pyrazol-3-yl}formamido)-5-(3,3-difluoropiperidin-1-yl)pentanoic acid] | reduced Ashcroft score index | – | greatest reduction in fibrosis | substantially less fibrosis | reduced the average leukocyte count in BAL fluid in all test groups | substantially less α-SMA positive lung tissue | ~2 | substantially less compared to induced controls | 310 | Statistical significance was not reached | lost more weight compared to other groups | 313 | significantly ameliorated fibrosis symptoms | reduced proliferation of activated myofibroblasts | reduced absolute and normalized lung weights
